Assay results as given in the NIST ThermoML archive (doi:10.1016/j.tca.2004.12.015).
“And” between values parts separate entries of the source, which are not always exact repeats. Identical values can stand only once.

Assay: molar heat capacity at constant pressure
Conditions: 101.33 kPa, Vacuum adiabatic calorimetry

N#CCCNc1ccccc1 [3-anilinopropanenitrile]
Conditions | molar heat capacity at constant pressure
83 K, Crystal 2 | 52.6 J/K/mol
83.11 K, Crystal 2 | 52.8 J/K/mol
85.94 K, Crystal 2 | 53.3 J/K/mol
88 K, Crystal 2 | 53.8 J/K/mol
88.94 K, Crystal 2 | 54.1 J/K/mol
91.87 K, Crystal 2 | 55.3 J/K/mol
93 K, Crystal 2 | 55 J/K/mol
94.73 K, Crystal 2 | 54.7 J/K/mol
97.54 K, Crystal 2 | 55.3 J/K/mol
98 K, Crystal 2 | 56 J/K/mol
100.3 K, Crystal 2 | 55.4 J/K/mol
103 K, Crystal 2 | 57 J/K/mol
103.01 K, Crystal 2 | 56 J/K/mol
105.67 K, Crystal 2 | 57.9 J/K/mol
108 K, Crystal 2 | 57.6 J/K/mol
108.29 K, Crystal 2 | 58.1 J/K/mol
110.86 K, Crystal 2 | 58.6 J/K/mol
113 K, Crystal 2 | 58.4 J/K/mol
113.39 K, Crystal 2 | 59.7 J/K/mol
115.91 K, Crystal 2 | 59.1 J/K/mol
118 K, Crystal 2 | 59.1 J/K/mol
118.39 K, Crystal 2 | 59.9 J/K/mol
120.86 K, Crystal 2 | 59.7 J/K/mol
123 K, Crystal 2 | 60.1 J/K/mol
123.29 K, Crystal 2 | 60.2 J/K/mol
125.69 K, Crystal 2 | 61.3 J/K/mol
128 K, Crystal 2 | 61.3 J/K/mol
128.08 K, Crystal 2 | 61.2 J/K/mol
130.44 K, Crystal 2 | 61.4 J/K/mol
132.78 K, Crystal 2 | 62 J/K/mol
133 K, Crystal 2 | 62.6 J/K/mol
135.1 K, Crystal 2 | 62.8 J/K/mol
137.39 K, Crystal 2 | 63.4 J/K/mol
138 K, Crystal 2 | 64.3 J/K/mol
139.66 K, Crystal 2 | 64.3 J/K/mol
141.91 K, Crystal 2 | 65 J/K/mol
143 K, Crystal 2 | 66 J/K/mol
144.13 K, Crystal 2 | 67.1 J/K/mol
146.35 K, Crystal 2 | 66.9 J/K/mol
148 K, Crystal 2 | 67.8 J/K/mol
148.54 K, Crystal 2 | 67.5 J/K/mol
150.73 K, Crystal 2 | 68.2 J/K/mol
152.89 K, Crystal 2 | 68.6 J/K/mol
153 K, Crystal 2 | 69.6 J/K/mol
155.03 K, Crystal 2 | 69.6 J/K/mol
157.16 K, Crystal 2 | 70.4 J/K/mol
158 K, Crystal 2 | 71.3 J/K/mol
159.28 K, Crystal 2 | 71.7 J/K/mol
161.38 K, Crystal 2 | 72.6 J/K/mol
163 K, Crystal 2 | 73.1 J/K/mol
163.47 K, Crystal 2 | 73 J/K/mol
165.54 K, Crystal 2 | 73.7 J/K/mol
167.59 K, Crystal 2 | 74.3 J/K/mol
168 K, Crystal 2 | 74.7 J/K/mol
169.63 K, Crystal 2 | 75.2 J/K/mol
171.66 K, Crystal 2 | 76 J/K/mol
173 K, Crystal 2 | 76.2 J/K/mol
173.68 K, Crystal 2 | 77 J/K/mol
175.7 K, Crystal 2 | 77.8 J/K/mol
177.67 K, Crystal 2 | 78.2 J/K/mol
178 K, Crystal 2 | 77.8 J/K/mol
179.65 K, Crystal 2 | 78.9 J/K/mol
181.61 K, Crystal 2 | 79.9 J/K/mol
183 K, Crystal 2 | 79.5 J/K/mol
183.57 K, Crystal 2 | 81.2 J/K/mol
185.51 K, Crystal 2 | 81.6 J/K/mol
187.45 K, Crystal 2 | 82.1 J/K/mol
188 K, Crystal 2 | 81.5 J/K/mol
189.37 K, Crystal 2 | 83 J/K/mol
191.29 K, Crystal 2 | 84 J/K/mol
193 K, Crystal 2 | 84 J/K/mol
193.19 K, Crystal 2 | 84 J/K/mol
195.09 K, Crystal 2 | 84.8 J/K/mol
196.97 K, Crystal 2 | 84.8 J/K/mol
198 K, Crystal 2 | 86.5 J/K/mol
198.84 K, Crystal 2 | 86.5 J/K/mol
200.68 K, Crystal 2 | 88.1 J/K/mol
202.52 K, Crystal 2 | 88.1 J/K/mol
203 K, Crystal 2 | 89.8 J/K/mol
204.36 K, Crystal 2 | 90.6 J/K/mol
206.19 K, Crystal 2 | 92.3 J/K/mol
208 K, Crystal 2 | 94 J/K/mol
208.02 K, Crystal 2 | 93.1 J/K/mol
209.84 K, Crystal 2 | 94.8 J/K/mol
211.66 K, Crystal 2 | 96.4 J/K/mol
213 K, Crystal 2 | 98.9 J/K/mol
213.46 K, Crystal 2 | 97.3 J/K/mol
215.26 K, Crystal 2 | 98.9 J/K/mol
217.05 K, Crystal 2 | 101 J/K/mol
218 K, Crystal 2 | 105 J/K/mol
218.84 K, Crystal 2 | 102 J/K/mol
220.61 K, Crystal 2 | 105 J/K/mol
222.38 K, Crystal 2 | 107 J/K/mol
223 K, Crystal 2 | 111 J/K/mol
224.14 K, Crystal 2 | 111 J/K/mol
225.88 K, Crystal 2 | 112 J/K/mol
227.6 K, Crystal 2 | 116 J/K/mol
228 K, Crystal 2 | 118 J/K/mol
229.29 K, Crystal 2 | 121 J/K/mol
230.95 K, Crystal 2 | 124 J/K/mol
232.59 K, Crystal 2 | 126 J/K/mol
233 K, Crystal 2 | 125 J/K/mol
234.22 K, Crystal 2 | 129 J/K/mol
235.85 K, Crystal 2 | 131 J/K/mol
237.47 K, Crystal 2 | 132 J/K/mol
238 K, Crystal 2 | 132 J/K/mol
239.08 K, Crystal 2 | 136 J/K/mol
240.67 K, Crystal 2 | 140 J/K/mol
242.24 K, Crystal 2 | 141 J/K/mol
243 K, Crystal 2 | 139 J/K/mol
243.78 K, Crystal 2 | 144 J/K/mol
245.31 K, Crystal 2 | 146 J/K/mol
246.85 K, Crystal 2 | 146 J/K/mol
248 K, Crystal 2 | 146 J/K/mol
248.39 K, Crystal 2 | 147 J/K/mol
249.91 K, Crystal 2 | 148 J/K/mol
251.45 K, Crystal 2 | 149 J/K/mol
252.99 K, Crystal 2 | 150 J/K/mol
253 K, Crystal 2 | 151 J/K/mol
254.53 K, Crystal 2 | 150 J/K/mol
256.06 K, Crystal 2 | 150 J/K/mol
257.59 K, Crystal 2 | 151 J/K/mol
258 K, Crystal 2 | 156 J/K/mol
259.11 K, Crystal 2 | 153 J/K/mol
260.62 K, Crystal 2 | 155 J/K/mol
262.12 K, Crystal 2 | 156 J/K/mol
263 K, Crystal 2 | 160 J/K/mol
263.62 K, Crystal 2 | 158 J/K/mol
265.1 K, Crystal 2 | 158 J/K/mol
266.58 K, Crystal 2 | 160 J/K/mol
268 K, Crystal 2 | 161 J/K/mol
268.05 K, Crystal 2 | 160 J/K/mol
269.52 K, Crystal 2 | 161 J/K/mol
270.98 K, Crystal 2 | 161 J/K/mol
272.44 K, Crystal 2 | 161 J/K/mol
273 K, Crystal 2 | 162 J/K/mol
273.9 K, Crystal 2 | 162 J/K/mol
275.36 K, Crystal 2 | 163 J/K/mol
276.81 K, Crystal 2 | 163 J/K/mol
278 K, Crystal 2 | 162 J/K/mol
278.26 K, Crystal 2 | 164 J/K/mol
279.7 K, Crystal 2 | 164 J/K/mol
281.13 K, Crystal 2 | 165 J/K/mol
282.56 K, Crystal 2 | 165 J/K/mol
283 K, Crystal 2 | 162 J/K/mol
283.98 K, Crystal 2 | 165 J/K/mol
285.41 K, Crystal 2 | 165 J/K/mol
286.82 K, Crystal 2 | 165 J/K/mol
288 K, Crystal 2 | 164 J/K/mol
288.23 K, Crystal 2 | 165 J/K/mol
289.63 K, Crystal 2 | 166 J/K/mol
291.02 K, Crystal 2 | 166 J/K/mol
292.39 K, Crystal 2 | 167 J/K/mol
293 K, Crystal 2 | 168 J/K/mol
293.74 K, Crystal 2 | 169 J/K/mol
295.08 K, Crystal 2 | 170 J/K/mol
296.42 K, Crystal 2 | 171 J/K/mol
297.76 K, Crystal 2 | 174 J/K/mol
298.15 K, Crystal 2 | 179 J/K/mol
299.09 K, Crystal 2 | 177 J/K/mol
300.41 K, Crystal 2 | 180 J/K/mol
301.72 K, Crystal 2 | 185 J/K/mol
303 K, Crystal 2 | 192 J/K/mol and 196 J/K/mol
304.27 K, Crystal 2 | 201 J/K/mol
305 K, Crystal 2 | 206 J/K/mol
305.5 K, Crystal 2 | 213 J/K/mol
306.69 K, Crystal 2 | 231 J/K/mol
307.82 K, Crystal 2 | 260 J/K/mol
308.85 K, Crystal 2 | 301 J/K/mol
309.78 K, Crystal 2 | 355 J/K/mol
310.63 K, Crystal 2 | 390 J/K/mol
311.5 K, Crystal 1 | 329 J/K/mol
312.51 K, Crystal 1 | 280 J/K/mol
313.55 K, Crystal 1 | 303 J/K/mol
314.54 K, Crystal 1 | 330 J/K/mol
315.48 K, Crystal 1 | 365 J/K/mol
316.35 K, Crystal 1 | 410 J/K/mol
317.16 K, Crystal 1 | 466 J/K/mol
317.89 K, Crystal 1 | 538 J/K/mol
318.55 K, Crystal 1 | 629 J/K/mol
319.14 K, Crystal 1 | 738 J/K/mol
319.66 K, Crystal 1 | 865 J/K/mol
320.12 K, Crystal 1 | 1014 J/K/mol
320.52 K, Crystal 1 | 1189 J/K/mol
320.86 K, Crystal 1 | 1380 J/K/mol
321.16 K, Crystal 1 | 1596 J/K/mol
321.42 K, Crystal 1 | 1846 J/K/mol
321.65 K, Crystal 1 | 2037 J/K/mol
321.85 K, Crystal 1 | 2361 J/K/mol
322.03 K, Crystal 1 | 2644 J/K/mol
322.19 K, Crystal 1 | 2885 J/K/mol
322.33 K, Crystal 1 | 3118 J/K/mol
322.45 K, Crystal 1 | 3359 J/K/mol
322.56 K, Crystal 1 | 3742 J/K/mol
322.66 K, Crystal 1 | 4116 J/K/mol
322.75 K, Crystal 1 | 4448 J/K/mol
322.83 K, Crystal 1 | 4648 J/K/mol
322.9 K, Crystal 1 | 5022 J/K/mol
322.97 K, Crystal 1 | 5280 J/K/mol
323.03 K, Crystal 1 | 5513 J/K/mol
323.09 K, Crystal 1 | 5621 J/K/mol
323.15 K, Crystal 1 | 6011 J/K/mol
323.2 K, Crystal 1 | 6386 J/K/mol
323.24 K, Crystal 1 | 6585 J/K/mol
323.29 K, Crystal 1 | 6627 J/K/mol
323.33 K, Crystal 1 | 6677 J/K/mol
323.37 K, Liquid | 6568 J/K/mol
323.42 K, Liquid | 6236 J/K/mol
323.46 K, Liquid | 5862 J/K/mol
323.5 K, Liquid | 5604 J/K/mol
323.55 K, Liquid | 5446 J/K/mol
323.59 K, Liquid | 5080 J/K/mol
323.64 K, Liquid | 4673 J/K/mol
323.69 K, Liquid | 4199 J/K/mol
323.73 K, Liquid | 3816 J/K/mol
323.78 K, Liquid | 3517 J/K/mol
323.83 K, Liquid | 2536 J/K/mol
324 K, Liquid | 1014 J/K/mol
324.78 K, Liquid | 242 J/K/mol
325 K, Liquid | 244 J/K/mol
325.93 K, Liquid | 245 J/K/mol
327.07 K, Liquid | 245 J/K/mol
328.2 K, Liquid | 246 J/K/mol
329.34 K, Liquid | 246 J/K/mol
330 K, Liquid | 247 J/K/mol
330.46 K, Liquid | 247 J/K/mol
331.59 K, Liquid | 247 J/K/mol
332.72 K, Liquid | 247 J/K/mol
333.84 K, Liquid | 247 J/K/mol
334.96 K, Liquid | 248 J/K/mol
335 K, Liquid | 249 J/K/mol
336.08 K, Liquid | 250 J/K/mol
337.19 K, Liquid | 251 J/K/mol
338.3 K, Liquid | 253 J/K/mol
339.4 K, Liquid | 254 J/K/mol
340 K, Liquid | 254 J/K/mol
340.5 K, Liquid | 255 J/K/mol
342.69 K, Liquid | 259 J/K/mol
343.77 K, Liquid | 262 J/K/mol
344.84 K, Liquid | 265 J/K/mol
345 K, Liquid | 266 J/K/mol
345.9 K, Liquid | 269 J/K/mol
346.95 K, Liquid | 273 J/K/mol
348.01 K, Liquid | 278 J/K/mol
349.04 K, Liquid | 284 J/K/mol
350 K, Liquid | 288 J/K/mol
351.08 K, Liquid | 294 J/K/mol
352.08 K, Liquid | 300 J/K/mol
353 K, Liquid | 308 J/K/mol
353.07 K, Liquid | 309 J/K/mol
